Converted amounts (≈) assume the structure as drawn.
Assays:
[1] = system: Puccinia recondita tritici = Puccinia triticina; assay: Fungicidal activity vs. leaf rust on wheat plants; type: in vivo; conditions: wheat (variety Yuma) sprayed at 50 ppm, inoculated on the following day, evaluated 7-9 days later; read-out: Puccinia Rating (% Disease Control @ 50 ppm)
Excerpt: D. Evaluation of Fungicidal Activity Vs. Leaf Rust (Causal Agent Puccinia recondita tritici=Puccinia triticina; Bayer Code PUCCRT). […] Each pot contained 3-8 seedlings. These plants were sprayed until wet with the formulated test compounds. The compounds were formulated at 50 ppm in 10 vol. % acetone plus 90 vol. % Triton X water (deionized water 99.99 wt %+0.01 wt % Triton X100), giving a “formulated test compound.” Formulated test compounds were applied to plants using a turn table sprayer fitted with two opposing air atomization nozzles which delivered approximately 1500 L/ha of spray volume. On the following day, the leaves were inoculated with an aqueous spore suspension of Puccinia recondita tritici and the plants were kept in high humidity overnight to permit spores to germinate and infect the leaf. The plants were then transferred to a greenhouse until disease developed on untreated control plants. Disease severity was evaluated 7-9 days later, depending on the speed of disease development. In each case of Table 3, the Puccinia rating scale is as follows: […]

[2] = system: Septoria tritici (ATCC 26517); assay: Minimum Inhibitory Concentration (MIC) (Septoria tritici), CLSI-based microdilution; type: cell-based; conditions: S. tritici ATCC 26517, 22° C. for seven days, 50% reduction in growth; for MIC: Zymoseptoria tritici, ATCC26517, 168 h, read-out: Septoria Rating (MIC)
Description: C. Minimum Inhibitory Concentration (MIC) (Septoria tritici)
Compounds of the present disclosure were assessed for their ability to inhibit the growth of a common strain of the fungal plant pathogen Septoria tritici (ATCC 26517) using a procedure based on a Clinical and Laboratory Standards Institute (CLSI) microdilution assay protocol for filamentous fungi.
Stock solutions of the test compounds and standards were prepared in DMSO at 6400 μg/mL. Each stock solution was used to prepare a 2-fold dilution series ranging from 16 to 0.016 μg/mL (total of 11 compound concentrations) in RPMI-1640 (Roswell Park Memorial Institute) medium containing 3-(N-morpholino)propanesulfonic acid (MOPS) buffer and 2% DMSO. A 100 μL aliquot of the dilutions was added to columns 1 (16 μg/mL compound) through 11 (0.016 μg/mL compound) of a 96-well microtiter plate. This format was replicated in a second row of the microtiter plate. Thus, each microtiter plate could include 11 concentrations of four test or control compounds replicated twice. A 100 μL aliquot of RPMI-1640/MOPS/2% DMSO medium was added to column 12 (no compound control) of the microtiter plate.
A fresh culture of S. tritici was used to prepare a solution of approximately 5×10^4 colony-forming units per milliliter (cfu/mL) in RPMI/MOPS medium without DMSO. A 100 µL aliquot of this solution was added to all 96 wells in the microtiter plate. […] The assay plates were incubated at 22° C. for seven days in the dark without shaking.
In each case of Table 3 the Septoria rating scale is as follows: […]

With OC(Cn1cnnn1)(c1ccc(F)cc1F)C(F)(F)c1ccccn1 (stereo not drawn) [2(−), 2-(2,4-Difluorophenyl)-1,1-difluoro-1-(pyridin-2-yl)-3-(1H-tetrazol-1-yl)propan-2-ol] the pest or weed control at 50 ppm [1] was 80 to 100% and the MIC [2] was ≤ 0.5 µg/mL.
For OC(Cn1cnnn1)(c1ccc(F)cc1F)C(F)(F)c1ccc(Br)cn1 (stereo not shown) [Compound 1, 1-(5-Bromopyridin-2-yl)-2-(2,4-difluorophenyl)-1,1-difluoro-3-(1H-tetrazol-1-yl)propan-2-ol], the pest or weed control at 50 ppm [1] was 80 to 100% and the MIC [2] was ≤ 0.5 µg/mL.
Compound OC(Cn1cnnn1)(c1ccc(F)cc1F)C(F)(F)c1ccc(F)cn1 (stereo not shown) [Compound 10, 2-(2,4-Difluorophenyl)-1,1-difluoro-1-(5-fluoropyridin-2-yl)-3-(1H-tetrazol-1-yl)propan-2-ol] has a pest or weed control at 50 ppm [1] of 80 to 100% and an MIC [2] of 1.5 µg/mL (≈ 4.04 µM).
With OC(Cn1cnnn1)(c1ccc(F)cc1F)C(F)(F)c1ccc(CC(F)(F)F)cn1 (stereo not shown) [Compound 17, 2-(2,4-Difluorophenyl)-1,1-difluoro-3-(1H-tetrazol-1-yl)-1-(5-(2,2,2-trifluoroethyl)pyridin-2-yl)propan-2-ol] the pest or weed control at 50 ppm [1] was 80 to 100% and the MIC [2] was ≤ 0.5 µg/mL.
For OC(Cn1cnnn1)(c1ccc(F)cc1F)C(F)(F)c1ccc(C2CC2)cn1 (stereo not shown) [Compound 18, 1-(5-Cyclopropylpyridin-2-yl)-2-(2,4-difluorophenyl)-1,1-difluoro-3-(1H-tetrazol-1-yl)propan-2-ol], the pest or weed control at 50 ppm [1] was 80 to 100% and the MIC [2] was ≤ 0.5 µg/mL.
In the case of OC(Cn1cnnn1)(c1ccc(Cl)cc1F)C(F)(F)c1ccc(Br)cn1 (stereo not shown) [Compound 22, 1-(5-Bromopyridin-2-yl)-2-(4-chloro-2-fluorophenyl)-1,1-difluoro-3-(1H-tetrazol-1-yl)propan-2-ol], the pest or weed control at 50 ppm [1] was 80 to 100% and the MIC [2] was ≤ 0.5 µg/mL.
Compound Cc1ccc(C(F)(F)C(O)(Cn2cnnn2)c2ccc(F)cc2F)nc1 (stereo not shown) [Compound 25, 2-(2,4-Difluorophenyl)-1,1-difluoro-1-(5-methylpyridin-2-yl)-3-(1H-tetrazol-1-yl)propan-2-ol] has a pest or weed control at 50 ppm [1] of 80 to 100% and an MIC [2] of 1.5 µg/mL (≈ 4.08 µM).
With OC(Cn1cnnn1)(c1ccc(Cl)cc1F)C(F)(F)c1ccc(Cl)cn1 (stereo not shown) [Compound 26, 2-(4-Chloro-2-fluorophenyl)-1-(5-chloropyridin-2-yl)-1,1-difluoro-3-(1H-tetrazol-1-yl)propan-2-ol] the pest or weed control at 50 ppm [1] was 80 to 100% and the MIC [2] was ≤ 0.5 µg/mL.
In the case of OC(Cn1cnnn1)(c1ccc(Cl)cc1F)C(F)(F)c1ccc(F)cn1 (stereo not shown) [Compound 27, 2-(4-Chloro-2-fluorophenyl)-1,1-difluoro-1-(5-fluoropyridin-2-yl)-3-(1H-tetrazol-1-yl)propan-2-ol], the pest or weed control at 50 ppm [1] was 80 to 100% and the MIC [2] was 1.5 µg/mL (≈ 3.87 µM).
With OC(Cn1cnnn1)(c1ccc(Cl)cc1F)C(F)(F)c1ccc(-n2nccn2)cn1 (stereo not shown) [Compound 28, 1-(5-(2H-1,2,3-Triazol-2-yl)pyridin-2-yl)-2-(4-chloro-2-fluorophenyl)-1,1-difluoro-3-(1H-tetrazol-1-yl)propan-2-ol] the pest or weed control at 50 ppm [1] was 80 to 100% and the MIC [2] was ≤ 0.5 µg/mL.
In the case of OC(Cn1cncn1)(c1ccc(F)cc1F)C(F)(F)c1ccc(Cl)cn1 (stereo not shown) [Compound 29, 1-(5-Chloropyridin-2-yl)-2-(2,4-difluorophenyl)-1,1-difluoro-3-(1H-1,2,4-triazol-1-yl)propan-2-ol], the pest or weed control at 50 ppm [1] was 80 to 100% and the MIC [2] was ≤ 0.5 µg/mL.
In the case of COc1ccc(-c2ccc(C(F)(F)C(O)(Cn3cnnn3)c3ccc(F)cc3F)nc2)s1 (stereo not shown) [Compound 32, 2-(2,4-Difluorophenyl)-1,1-difluoro-1-(5-(5-methoxythiophen-2-yl)pyridin-2-yl)-3-(1H-tetrazol-1-yl)propan-2-ol], the pest or weed control at 50 ppm [1] was 40 to 59% and the MIC [2] was ≤ 0.5 µg/mL.
For OC(Cc1cc[nH]n1)(c1ccc(F)cc1F)C(F)(F)c1ccc(Br)cn1 (stereo not shown) [Compound 62, 1-(5-Bromopyridin-2-yl)-2-(2,4-difluorophenyl)-1,1-difluoro-3-(1H-pyrazol-3-yl)propan-2-ol], the MIC [2] was ≤ 0.5 µg/mL.
Work on OC(Cc1cc[nH]n1)(c1ccc(F)cc1F)C(F)(F)c1ccc(-n2nccn2)cn1 (stereo not shown) [Compound 63, 1-(5-(2H-1,2,3-Triazol-2-yl)pyridin-2-yl)-2-(2,4-difluorophenyl)-1,1-difluoro-3-(1H-pyrazol-3-yl)propan-2-ol] yielded an MIC [2] of 1.5 µg/mL (≈ 3.59 µM).
OC(Cc1cc[nH]n1)(c1ccc(F)cc1F)C(F)(F)c1ccc(-n2ccnn2)cn1 (stereo not shown) [Compound 64, 1-(5-(1H-1,2,3-Triazol-1-yl)pyridin-2-yl)-2-(2,4-difluorophenyl)-1,1-difluoro-3-(1H-pyrazol-3-yl)propan-2-ol] was tested, and the MIC [2] was > 4 µg/mL.
Work on OC(Cc1cn[nH]c1)(c1ccc(F)cc1F)C(F)(F)c1ccccn1 (stereo not shown) [Compound 65, 2-(2,4-Difluorophenyl)-1,1-difluoro-3-(1H-pyrazol-4-yl)-1-(pyridin-2-yl)propan-2-ol] yielded an MIC [2] of 1.5 to 4 µg/mL (≈ 4.27 to 11.4 µM).
In the case of O=C(c1ccc(C(F)(F)C(O)(Cn2cnnn2)c2ccc(F)cc2F)nc1)c1ccc(F)c(F)c1 (stereo not shown) [Compound 70, (3,4-Difluorophenyl)(6-(2-(2,4-difluorophenyl)-1,1-difluoro-2-hydroxy-3-(1H-tetrazol-1-yl)propyl)pyridin-3-yl)methanone], the MIC [2] was ≤ 0.5 µg/mL.
For OC(c1ccc(C(F)(F)F)cc1)c1ccc(C(F)(F)C(O)(Cn2cnnn2)c2ccc(F)cc2F)nc1 (stereo not shown) [Compound 72, 2-(2,4-Difluorophenyl)-1,1-difluoro-1-(5-(hydroxy(4-(trifluoromethyl)phenyl)methyl)pyridin-2-yl)-3-(1H-tetrazol-1-yl)propan-2-ol], the MIC [2] was 1.5 to 4 µg/mL (≈ 2.84 to 7.58 µM).
With OC(Cn1cnnn1)(c1ccc(F)cc1F)C(F)(F)c1ccc(C(F)(F)c2ccc(Cl)cc2)cn1 (stereo not shown) [Compound 74, 1-(5-((4-Chlorophenyl)difluoromethyl)pyridin-2-yl)-2-(2,4-difluorophenyl)-1,1-difluoro-3-(1H-tetrazol-1-yl)propan-2-ol] the MIC [2] was 1.5 to 4 µg/mL (≈ 2.92 to 7.78 µM).
In the case of OC(Cn1cnnn1)(c1ccc(F)cc1F)C(F)(F)c1ccc(-c2ccc(Br)s2)cn1 (stereo not shown) [Compound 78, 1-(5-(5-Bromothiophen-2-yl)pyridin-2-yl)-2-(2,4-difluorophenyl)-1,1-difluoro-3-(1H-tetrazol-1-yl)propan-2-ol], the MIC [2] was ≤ 0.5 µg/mL.
In the case of N#Cc1ccc(OCc2ccc(C(F)(F)C(O)(Cn3ncnn3)c3ccc(F)cc3F)nc2)cc1 (stereo not shown) [Compound 80, 4-((6-(2-(2,4-Difluorophenyl)-1,1-difluoro-2-hydroxy-3-(2H-tetrazol-2-yl)propyl)pyridin-3-yl)methoxy)benzonitrile], the MIC [2] was > 4 µg/mL.
For OC(Cn1cnnn1)(c1ccc(F)cc1F)C(F)(F)c1ccc(N2CCOCC2)cn1 (stereo not shown) [Compound 81, 2-(2,4-Difluorophenyl)-1,1-difluoro-1-(5-morpholinopyridin-2-yl)-3-(1H-tetrazol-1-yl)propan-2-ol], the MIC [2] was 1.5 to 4 µg/mL (≈ 3.42 to 9.12 µM).
OC(Cn1cnnn1)(c1ccc(F)cc1F)C(F)(F)c1ccc(N2CCCCC2)cn1 (stereo not shown) [Compound 82, 2-(2,4-Difluorophenyl)-1,1-difluoro-1-(5-(piperidin-1-yl)pyridin-2-yl)-3-(1H-tetrazol-1-yl)propan-2-ol] gave an MIC [2] of 1.5 to 4 µg/mL (≈ 3.44 to 9.17 µM).
CC(F)(c1ccc(Br)cn1)C(O)(Cn1cnnn1)c1ccc(F)cc1F (stereo not shown) [Compound 84, 3-(5-Bromopyridin-2-yl)-2-(2,4-difluorophenyl)-3-fluoro-1-(1H-tetrazol-1-yl)butan-2-ol] gave an MIC [2] of 1.5 µg/mL (≈ 3.5 µM).
For CC(F)(c1ccc(Br)cn1)C(O)(Cn1cnnn1)c1ccc(F)cc1F (stereo not shown) [Compound 85, 3-(5-Bromopyridin-2-yl)-2-(2,4-difluorophenyl)-3-fluoro-1-(1H-tetrazol-1-yl)butan-2-ol], the “Septoria Rating (MIC)” value [2] was “C (>1.5-4)”.
For OC(Cc1cncs1)(c1ccc(F)cc1F)C(F)(F)c1ccccn1 (stereo not shown) [Compound 86, 2-(2,4-Difluorophenyl)-1,1-difluoro-1-(pyridin-2-yl)-3-(thiazol-5-yl)propan-2-ol], the MIC [2] was ≤ 0.5 µg/mL.
With CC(C)OCc1ccc(C(F)(F)C(O)(Cn2cnnn2)c2ccc(F)cc2F)nc1 (stereo not shown) [Compound 91, 2-(2,4-difluorophenyl)-1,1-difluoro-1-(5-(isopropoxymethyl)pyridin-2-yl)-3-(1H-tetrazol-1-yl)propan-2-ol] the MIC [2] was 1.5 µg/mL (≈ 3.53 µM).
In the case of OC(Cn1cnnn1)(c1ccc(F)cc1F)C(F)(F)c1ccc(Cc2ccc(Cl)nc2)cn1 (stereo not shown) [Compound 97, 1-(5-((6-chloropyridin-3-yl)methyl)pyridin-2-yl)-2-(2,4-difluorophenyl)-1,1-difluoro-3-(1H-tetrazol-1-yl)propan-2-ol], the MIC [2] was ≤ 0.5 µg/mL.

Source: patent US9221791B2, “Metalloenzyme inhibitor compounds” (Viamet Pharmaceuticals, Inc., priority 2011, dated 2015)
